Patent US12077503B2, “Substituted cyclic amides and their use as herbicides” (FMC CORPORATION, priority 2015, dated 2024)

Legend:
Format in all cases: in vivo
[1] = system: ragweed (common ragweed, Ambrosia elatior); assay: Test A postemergence; details: Ambrosia artemisiifolia, post-emergence, 240 h, read-out: Ragweed plant response rating (0 to 100 scale); for pest or weed control at 125 g/ha: 125 g ai/ha, postemergence, visual injury vs untreated controls after approx. 10 d, 0 = no effect, 100 = complete control; for pest or weed control at 31 g/ha: Postemergence, 31 g ai/ha, 0 is no effect, 100 is complete control
How it was run: (§1)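 Visual injury scores from 0, no effect, to 100, complete control, were assigned versus untreated controls roughly 10 d after treatment in the greenhouse. Test chemicals, formulated with surfactant in a non-phytotoxic solvent, were applied to planted seeds as a preemergence soil spray or postemergence to one- to two-leaf plants 2 to 10 cm tall, in loam–sand soil.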

[2] = system: barnyardgrass (Echinochloa crus-galli); assay: Test A postemergence; details: Echinochloa crus-galli, post-emergence, 240 h, read-out: Barnyardgrass plant response rating (0 to 100 scale); for pest or weed control at 125 g/ha: 125 g ai/ha, postemergence, visual injury vs untreated controls after approx. 10 d, 0 = no effect, 100 = complete control; for pest or weed control at 31 g/ha: Postemergence, 31 g ai/ha, 0 is no effect, 100 is complete control
How it was run: as §1

[3] = system: giant foxtail (Setaria faberii); assay: Test A postemergence; details: Setaria faberi, post-emergence, 240 h, read-out: Foxtail, Giant plant response rating (0 to 100 scale); for pest or weed control at 125 g/ha: 125 g ai/ha, postemergence, visual injury vs untreated controls after approx. 10 d, 0 = no effect, 100 = complete control; for pest or weed control at 31 g/ha: Postemergence, 31 g ai/ha, 0 is no effect, 100 is complete control
How it was run: as §1

[4] = system: pigweed (Amaranthus retroflexus); assay: Test A postemergence; details: Amaranthus retroflexus, post-emergence, 240 h, read-out: Pigweed plant response rating (0 to 100 scale); for pest or weed control at 125 g/ha: 125 g ai/ha, postemergence, visual injury vs untreated controls after approx. 10 d, 0 = no effect, 100 = complete control; for pest or weed control at 31 g/ha: Postemergence, 31 g ai/ha, 0 is no effect, 100 is complete control
How it was run: as §1

[5] = system: ryegrass, Italian (Italian ryegrass, Lolium multiflorum); assay: Test A postemergence; details: Lolium multiflorum, post-emergence, 240 h, read-out: Ryegrass, Italian plant response rating (0 to 100 scale); for pest or weed control at 125 g/ha: 125 g ai/ha, postemergence, visual injury vs untreated controls after approx. 10 d, 0 = no effect, 100 = complete control; for pest or weed control at 31 g/ha: Postemergence, 31 g ai/ha, 0 is no effect, 100 is complete control
How it was run: as §1

[6] = system: Galium (catchweed bedstraw, Galium aparine); assay: Test A postemergence; details: Galium, post-emergence, 240 h, read-out: Galium plant response rating (0 to 100 scale); for pest or weed control at 125 g/ha: 125 g ai/ha, postemergence, visual injury vs untreated controls after approx. 10 d, 0 = no effect, 100 = complete control; for pest or weed control at 31 g/ha: Postemergence, 31 g ai/ha, 0 is no effect, 100 is complete control
How it was run: as §1

Kochia (Kochia scoparia) [7] = assay: Test A postemergence; details: Bassia scoparia, post-emergence, 240 h, read-out: Kochia plant response rating (0 to 100 scale); for pest or weed control at 125 g/ha: 125 g ai/ha, postemergence, visual injury vs untreated controls after approx. 10 d, 0 = no effect, 100 = complete control; for pest or weed control at 31 g/ha: Postemergence, 31 g ai/ha, 0 is no effect, 100 is complete control
How it was run: as §1

[8] = system: wheat (Triticum aestivum); assay: Test A postemergence; details: Triticum aestivum, post-emergence, 240 h, read-out: Wheat plant response rating (0 to 100 scale); for plant injury at 125 g/ha: 125 g ai/ha, postemergence, visual injury vs untreated controls after approx. 10 d, 0 = no effect, 100 = complete control; for plant injury at 31 g/ha: Postemergence, 31 g ai/ha, 0 is no effect, 100 is complete control
How it was run: as §1

corn (Zea mays) = assay: Test A postemergence; details: Zea mays, post-emergence, 240 h, read-out: Corn plant response rating (0 to 100 scale); for plant injury at 125 g/ha: 125 g ai/ha, postemergence, visual injury vs untreated controls after approx. 10 d, 0 = no effect, 100 = complete control; for plant injury at 31 g/ha: Postemergence, 31 g ai/ha, 0 is no effect, 100 is complete control
How it was run: as §1

[9] = system: blackgrass (Alopecurus myosuroides); assay: Test A postemergence; details: Alopecurus myosuroides, post-emergence, 240 h, read-out: Blackgrass plant response rating (0 to 100 scale); for pest or weed control at 125 g/ha: 125 g ai/ha, postemergence, visual injury vs untreated controls after approx. 10 d, 0 = no effect, 100 = complete control; for pest or weed control at 31 g/ha: Postemergence, 31 g ai/ha, 0 is no effect, 100 is complete control
How it was run: as §1

[10] = system: barnyardgrass (Echinochloa crus-galli); assay: Test B flooded paddy test; details: Echinochloa crus-galli, 250 g ai/ha, Flood; 0 to 100 scale where 0 is no effect and 100 is complete control; read-out: Barnyardgrass plant response rating
How it was run: (§2)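 Percent control, visually estimated after 13–15 d in the greenhouse on a 0–100 basis, compares treated pots with untreated ones; compound was put into paddy water 3 cm above the soil when plants had two leaves.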

rice (Oryra sativa) = assay: Test B flooded paddy test; details: Oryza sativa, 250 g ai/ha, Flood; 0 to 100 scale where 0 is no effect and 100 is complete control; read-out: Rice plant response rating
How it was run: as §2

[11] = system: ducksalad (Heteranthera limosa); assay: Test B flooded paddy test; details: Heteranthera limosa, 250 g ai/ha, Flood; 0 to 100 scale where 0 is no effect and 100 is complete control; read-out: Ducksalad plant response rating
How it was run: as §2

[12] = system: sedge, umbrella (small-flower umbrella sedge, Cyperus difformis); assay: Test B flooded paddy test; details: Cyperus difformis, 250 g ai/ha, Flood; 0 to 100 scale where 0 is no effect and 100 is complete control; read-out: Sedge, Umbrella plant response rating
How it was run: as §2

[13] = system: ragweed (common ragweed, Ambrosia elatior); assay: Test A preemergence; details: Ambrosia artemisiifolia, pre-emergence, 240 h, 0 to 100 scale where 0 is no effect and 100 is complete control, read-out: Ragweed plant response rating; for pest or weed control at 31 g/ha: 31 g ai/ha, Preemergence; for pest or weed control at 125 g/ha: 125 g ai/ha, preemergence, visual injury rating, approximately 10 d
How it was run: as §1

[14] = system: barnyardgrass (Echinochloa crus-galli); assay: Test A preemergence; details: Echinochloa crus-galli, pre-emergence, 240 h, 0 to 100 scale where 0 is no effect and 100 is complete control, read-out: Barnyardgrass plant response rating; for pest or weed control at 31 g/ha: 31 g ai/ha, Preemergence; for pest or weed control at 125 g/ha: 125 g ai/ha, preemergence, visual injury rating, approximately 10 d
How it was run: as §1

[15] = system: giant foxtail (Setaria faberii); assay: Test A preemergence; details: Setaria faberi, pre-emergence, 240 h, 0 to 100 scale where 0 is no effect and 100 is complete control, read-out: Foxtail, Giant plant response rating; for pest or weed control at 31 g/ha: 31 g ai/ha, Preemergence; for pest or weed control at 125 g/ha: 125 g ai/ha, preemergence, visual injury rating, approximately 10 d
How it was run: as §1

[16] = system: pigweed (Amaranthus retroflexus); assay: Test A preemergence; details: Amaranthus retroflexus, pre-emergence, 240 h, 0 to 100 scale where 0 is no effect and 100 is complete control, read-out: Pigweed plant response rating; for pest or weed control at 31 g/ha: 31 g ai/ha, Preemergence; for pest or weed control at 125 g/ha: 125 g ai/ha, preemergence, visual injury rating, approximately 10 d
[17] = system: ryegrass, Italian (Italian ryegrass, Lolium multiflorum); assay: Test A preemergence; details: Lolium multiflorum, pre-emergence, 240 h, 0 to 100 scale where 0 is no effect and 100 is complete control, read-out: Ryegrass, Italian plant response rating; for pest or weed control at 31 g/ha: 31 g ai/ha, Preemergence; for pest or weed control at 125 g/ha: 125 g ai/ha, preemergence, visual injury rating, approximately 10 d
How it was run: as §1

Kochia (Kochia scoparia) [18] = assay: Test A preemergence; details: Bassia scoparia, pre-emergence, 240 h, 0 to 100 scale where 0 is no effect and 100 is complete control, read-out: Kochia plant response rating; for pest or weed control at 31 g/ha: 31 g ai/ha, Preemergence; for pest or weed control at 125 g/ha: 125 g ai/ha, preemergence, visual injury rating, approximately 10 d
How it was run: as §1

Structure (SMILES)	pest or weed control at 125 g/ha [1] [%]	pest or weed control at 31 g/ha [1] [%]	pest or weed control at 125 g/ha [2] [%]	pest or weed control at 31 g/ha [2] [%]	pest or weed control at 125 g/ha [3] [%]	pest or weed control at 31 g/ha [3] [%]	pest or weed control at 125 g/ha [4] [%]	pest or weed control at 31 g/ha [4] [%]	pest or weed control at 125 g/ha [5] [%]	pest or weed control at 31 g/ha [5] [%]	pest or weed control at 125 g/ha [6] [%]	pest or weed control at 31 g/ha [6] [%]	pest or weed control at 125 g/ha (Kochia (Kochia scoparia) [7]) [%]	pest or weed control at 31 g/ha (Kochia (Kochia scoparia) [7]) [%]	plant injury at 125 g/ha [8] [%]	plant injury at 31 g/ha [8] [%]	plant injury at 125 g/ha (corn (Zea mays)) [%]	plant injury at 31 g/ha (corn (Zea mays)) [%]	pest or weed control at 125 g/ha [9] [%]	pest or weed control at 31 g/ha [9] [%]	further results
CN1C[C@H](c2ccc(C#N)c(F)c2)[C@@H](C(=O)Nc2cccc(F)c2F)C1=O [Compound 1192]	0	0	100	50	70	40	20	0	0	0	50	0	40	0	0	0	40	0	0	0	pest or weed control at 250 g/ha [10]: 100%; pest or weed control at 250 g/ha (rice (Oryra sativa)): 30%; pest or weed control at 250 g/ha [11]: 95%; pest or weed control at 250 g/ha [12]: 30%; pest or weed control at 31 g/ha [13]: 0%; pest or weed control at 125 g/ha [13]: 0%; pest or weed control at 31 g/ha [14]: 70%; pest or weed control at 125 g/ha [14]: 100%; pest or weed control at 31 g/ha [15]: 30%; pest or weed control at 125 g/ha [15]: 100%; pest or weed control at 31 g/ha [16]: 0%; pest or weed control at 125 g/ha [16]: 30%; pest or weed control at 31 g/ha [17]: 0%; pest or weed control at 125 g/ha [17]: 0%; pest or weed control at 31 g/ha (Kochia (Kochia scoparia) [18]): 0%; pest or weed control at 125 g/ha (Kochia (Kochia scoparia) [18]): 50%
Cc1cc([C@H]2CN(C)C(=O)[C@@H]2C(=O)Nc2cccc(F)c2F)no1 [Compound 1237]	0	0	20	0	20	0	0	0	0	0	0	0	0	0	0	0	0	0	0	0	pest or weed control at 250 g/ha [10]: 0%; pest or weed control at 250 g/ha (rice (Oryra sativa)): 0%; pest or weed control at 250 g/ha [11]: 65%; pest or weed control at 250 g/ha [12]: 0%; pest or weed control at 31 g/ha [13]: 0%; pest or weed control at 125 g/ha [13]: 0%; pest or weed control at 31 g/ha [14]: 0%; pest or weed control at 125 g/ha [14]: 70%; pest or weed control at 31 g/ha [15]: 20%; pest or weed control at 125 g/ha [15]: 60%; pest or weed control at 31 g/ha [16]: 0%; pest or weed control at 125 g/ha [16]: 0%; pest or weed control at 31 g/ha [17]: 0%; pest or weed control at 125 g/ha [17]: 0%; pest or weed control at 31 g/ha (Kochia (Kochia scoparia) [18]): 0%; pest or weed control at 125 g/ha (Kochia (Kochia scoparia) [18]): 0%
